Test results reported in patent US12391737B2, “Soluble NPY2 receptor agonists” (Boehringer Ingelheim International GmbH, priority 2020, dated 2025).
*1 amine or outer side, *2 acyl side, *3 side chain or, on linkers, in order; H or OH if unused. Where a SMILES comes first, the peptide text is derived from it. Side-chain parts run from the residue outwards. The star is where a group is joined. C18 diacid = O=C(O)CCCCCCCCCCCCCCCCC(=O)*; γGlu = O=C(O)[C@H](CCC(=O)[*:2])N[*:1]; Isovaleryl = CC(C)CC(=O)*; Ahx = NCCCCCC(=O)O

Legend:
Solubility determination = conditions: for Sol6: pH 6; for Sol7: pH 7
Procedure, shortened: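 Solubility is derived from the ratio of reversed-phase peak areas, filtered sample over a control dissolved at 1 mg/ml in 50% acetonitrile. Peptides are agitated for 2 hours at room temperature in 0.1 M sodium diphosphate at pH 6.4 or 7.0, aiming at 10 mg/ml.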

[1] = biological target: T1, Human Neuropeptide Y2 Receptor (Homo sapiens, UniProt P49146); assay: Radioligand binding competition assay (RLB); conditions: Table 3, 125I-PYY(1-36) competition; read-out: Ki
T1 construct: purchased CHEMICON HTS066M
T1 sequence (P49146 1-381): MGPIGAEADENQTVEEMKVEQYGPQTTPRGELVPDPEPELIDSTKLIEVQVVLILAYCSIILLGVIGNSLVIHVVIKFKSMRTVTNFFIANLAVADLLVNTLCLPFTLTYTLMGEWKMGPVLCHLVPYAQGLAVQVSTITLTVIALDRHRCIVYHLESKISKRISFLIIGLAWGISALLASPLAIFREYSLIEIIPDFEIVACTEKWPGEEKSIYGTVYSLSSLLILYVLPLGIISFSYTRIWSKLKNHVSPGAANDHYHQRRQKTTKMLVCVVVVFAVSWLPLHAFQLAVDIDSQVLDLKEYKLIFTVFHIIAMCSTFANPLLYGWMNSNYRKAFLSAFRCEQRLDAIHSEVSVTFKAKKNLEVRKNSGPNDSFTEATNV
Procedure, shortened: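 Filtration competition binding on membranes from cells expressing the receptor, 0.5 μg protein/well, in 50 mM HEPES, 5 mM MgCl2, 1 mM CaCl2, pH 7.4, with 0.2% ovalbumin. Incubation ran 2 h at room temperature, followed by GF/C filtration and scintillation counting. IC50 came from nonlinear sigmoidal fits.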

CC[C@H](C)[C@H](NC(=O)[C@H](CCC(=O)O)NC(=O)[C@H](CCC(=O)O)NC(=O)[C@@H]1CCCN1C(=O)[C@H](CCC(=O)O)NC(=O)[C@H](C)NC(=O)[C@H](C)NC(=O)[C@H](C)NC(=O)[C@H](CCC(=O)O)NC(=O)[C@@H]1CCCN1C(=O)[C@H](CCCCNC(=O)CCCCCNC(=O)CC[C@H](NC(=O)CCCCCCCCCCCCCCCCC(=O)O)C(=O)O)NC(=O)[C@H](CCC(=O)O)NC(=O)[C@@H]1CCCN1C(=O)[C@H](C)NC(=O)CC(C)C)C(=O)N[C@@H](CCC(N)=O)C(=O)N[C@@H](CCCNC(=N)N)C(=O)N[C@@H](Cc1ccc(O)cc1)C(=O)N[C@@H](Cc1ccc(O)cc1)C(=O)N[C@H](C(=O)N[C@@H](CO)C(=O)N[C@@H](CC(C)C)C(=O)N[C@@H](CCCNC(=N)N)C(=O)N[C@@H](Cc1c[nH]cn1)C(=O)N[C@@H](Cc1ccc(O)cc1)C(=O)N[C@@H](Cc1ccc(O)cc1)C(=O)N[C@@H](CC(N)=O)C(=O)N[C@@H](Cc1c[nH]c2ccccc12)C(=O)N[C@@H](CC(C)C)C(=O)N[C@H](C(=O)N[C@@H](CCCNC(=N)N)C(=O)N[C@@H](CCC(N)=O)C(=O)N[C@@H](CCCNC(=N)N)C(=O)N[C@@H](Cc1ccc(O)cc1)C(N)=O)[C@@H](C)O)C(C)C [Compound 124, N{alpha-4}-(3-methylbutanoyl)-N{epsilon-7}-(6-[(4S)-4-carboxy-4-(17-carboxyheptadecanamido)butanamido]hexanoyl)-[4A,7K,9E,10A,11A,13E,17I,18Q,22V,28Y,30W,31L]-hPYY(4-36)] (Isovaleryl-APEK([Ahx-γGlu-C18 diacid])PEAAAEPEEIQRYYVSLRHYYNWLTRQRY-NH2)
Sol6 (Solubility determination): 9.7 mg/mL
Sol7 (Solubility determination): >10.0 mg/mL
Ki [1]: 3.07 nM

CC(C)CC(=O)N[C@@H](C)C(=O)N1CCC[C@H]1C(=O)N[C@@H](CCC(=O)O)C(=O)N[C@@H](CCCCNC(=O)CCCCCNC(=O)CC[C@H](NC(=O)CCCCCCCCCCCCCCCCC(=O)O)C(=O)O)C(=O)N1CCC[C@H]1C(=O)N[C@@H](CCC(=O)O)C(=O)N[C@@H](C)C(=O)N[C@@H](CC(=O)O)C(=O)N[C@@H](CO)C(=O)N[C@@H](CO)C(=O)N1CCC[C@H]1C(=O)N[C@@H](CCC(=O)O)C(=O)N[C@@H](CCC(=O)O)C(=O)N[C@@H](CC(C)C)C(=O)N[C@@H](CCC(N)=O)C(=O)N[C@@H](CCCNC(=N)N)C(=O)N[C@@H](Cc1ccc(O)cc1)C(=O)N[C@@H](Cc1ccc(O)cc1)C(=O)N[C@H](C(=O)N[C@@H](CO)C(=O)N[C@@H](CC(C)C)C(=O)N[C@@H](CCCNC(=N)N)C(=O)N[C@@H](Cc1c[nH]cn1)C(=O)N[C@@H](Cc1ccc(O)cc1)C(=O)N[C@@H](Cc1ccc(O)cc1)C(=O)N[C@@H](CC(N)=O)C(=O)N[C@@H](Cc1c[nH]c2ccccc12)C(=O)N[C@@H](CC(C)C)C(=O)N[C@H](C(=O)N[C@@H](CCCNC(=N)N)C(=O)N[C@@H](CCC(N)=O)C(=O)N[C@@H](CCCNC(=N)N)C(=O)N[C@@H](Cc1ccc(O)cc1)C(N)=O)[C@@H](C)O)C(C)C [Compound 29, N{alpha-4}-(3-methylbutanoyl)-N{epsilon-7}-(6-[(4S)-4-carboxy-4-(17-carboxyheptadecanamido)butanamido]hexanoyl)[4A,7K,9E,10A,12S,18Q,22V,28Y,30W,31L]-hPYY(4-36)] (Isovaleryl-APEK([Ahx-γGlu-C18 diacid])PEADSSPEELQRYYVSLRHYYNWLTRQRY-NH2)
Sol6 (Solubility determination): 9.9 mg/mL
Sol7 (Solubility determination): 10.0 mg/mL
Ki [1]: 1.36 nM

CC(C)CC(=O)N[C@@H](C)C(=O)N1CCC[C@H]1C(=O)N[C@@H](C)C(=O)N[C@@H](CCCCNC(=O)CCCCCNC(=O)CC[C@H](NC(=O)CCCCCCCCCCCCCCCCC(=O)O)C(=O)O)C(=O)N1CCC[C@H]1C(=O)N[C@@H](CCC(=O)O)C(=O)N[C@@H](CCC(=O)O)C(=O)N[C@@H](CC(=O)O)C(=O)N[C@@H](C)C(=O)N[C@@H](CO)C(=O)N1CCC[C@H]1C(=O)N[C@@H](CCC(=O)O)C(=O)N[C@@H](CCC(=O)O)C(=O)N[C@@H](CO)C(=O)N[C@@H](CCC(N)=O)C(=O)N[C@@H](CCCNC(=N)N)C(=O)N[C@@H](Cc1ccc(O)cc1)C(=O)N[C@@H](Cc1ccc(O)cc1)C(=O)N[C@H](C(=O)N[C@@H](CO)C(=O)N[C@@H](CC(C)C)C(=O)N[C@@H](CCCNC(=N)N)C(=O)N[C@@H](Cc1c[nH]cn1)C(=O)N[C@@H](Cc1ccc(O)cc1)C(=O)N[C@@H](Cc1ccc(O)cc1)C(=O)N[C@@H](CC(N)=O)C(=O)N[C@@H](Cc1c[nH]c2ccccc12)C(=O)N[C@@H](CC(C)C)C(=O)N[C@H](C(=O)N[C@@H](CCCNC(=N)N)C(=O)N[C@@H](CCC(N)=O)C(=O)N[C@@H](CCCNC(=N)N)C(=O)N[C@@H](Cc1ccc(O)cc1)C(N)=O)[C@@H](C)O)C(C)C [Compound 149, N{alpha-4}-(3-methylbutanoyl)-N{epsilon-7}-(6-[(4S)-4-carboxy-4-(17-carboxyheptadecanamido)butanamido]hexanoyl)-[4A,6A,7K,9E,17S,18Q,22V,28Y,30W,31L]-hPYY(4-36)]
Sol6 (Solubility determination): 8.7 mg/mL
Sol7 (Solubility determination): 10.0 mg/mL
Ki [1]: 3.97 nM

CC(C)CC(=O)N[C@@H](C)C(=O)N1CCC[C@H]1C(=O)N[C@@H](CCC(=O)O)C(=O)N[C@@H](CCCCNC(=O)CCCCCNC(=O)CC[C@H](NC(=O)CCCCCCCCCCCCCCCCC(=O)O)C(=O)O)C(=O)N1CCC[C@H]1C(=O)N[C@@H](CCC(=O)O)C(=O)N[C@@H](C)C(=O)N[C@@H](CC(=O)O)C(=O)N[C@@H](C)C(=O)N[C@@H](CO)C(=O)N[C@@H](CCC(=O)O)C(=O)N[C@@H](CCC(=O)O)C(=O)N[C@@H](CCC(=O)O)C(=O)N[C@@H](CC(C)C)C(=O)N[C@@H](CCC(N)=O)C(=O)N[C@@H](CCCNC(=N)N)C(=O)N[C@@H](Cc1ccc(O)cc1)C(=O)N[C@@H](Cc1ccc(O)cc1)C(=O)N[C@H](C(=O)N[C@@H](CO)C(=O)N[C@@H](CC(C)C)C(=O)N[C@@H](CCCNC(=N)N)C(=O)N[C@@H](Cc1c[nH]cn1)C(=O)N[C@@H](Cc1ccc(O)cc1)C(=O)N[C@@H](Cc1ccc(O)cc1)C(=O)N[C@@H](CC(N)=O)C(=O)N[C@@H](Cc1c[nH]c2ccccc12)C(=O)N[C@@H](CC(C)C)C(=O)N[C@H](C(=O)N[C@@H](CCCNC(=N)N)C(=O)N[C@@H](CCC(N)=O)C(=O)N[C@@H](CCCNC(=N)N)C(=O)N[C@@H](Cc1ccc(O)cc1)C(N)=O)[C@@H](C)O)C(C)C [Compound 108, N{alpha-4}-(3-methylbutanoyl)-N{epsilon-7}-(6-[(4S)-4-carboxy-4-(17-carboxyheptadecanamido)butanamido]hexanoyl)-[4A,7K,9E,10A,14E,18Q,22V,28Y,30W,31L]-hPYY(4-36)]
Sol6 (Solubility determination): 8.6 mg/mL
Sol7 (Solubility determination): 8.0 mg/mL
Ki [1]: 2.77 nM

CC(C)CC(=O)N[C@@H](C)C(=O)N1CCC[C@H]1C(=O)N[C@@H](CCC(=O)O)C(=O)N[C@@H](CCCCNC(=O)CCCCCNC(=O)CC[C@H](NC(=O)CCCCCCCCCCCCCCCCC(=O)O)C(=O)O)C(=O)N1CCC[C@H]1C(=O)N[C@@H](CCC(=O)O)C(=O)N[C@@H](CCC(=O)O)C(=O)N[C@@H](CC(=O)O)C(=O)N[C@@H](C)C(=O)N[C@@H](CO)C(=O)N1CCC[C@H]1C(=O)N[C@@H](CCC(=O)O)C(=O)N[C@@H](CCC(=O)O)C(=O)N[C@@H](CC(C)C)C(=O)N[C@@H](CCC(N)=O)C(=O)N[C@@H](CCCNC(=N)N)C(=O)N[C@@H](Cc1ccc(O)cc1)C(=O)N[C@@H](Cc1ccc(O)cc1)C(=O)N[C@H](C(=O)N[C@@H](CCC(=O)O)C(=O)N[C@@H](CC(C)C)C(=O)N[C@@H](CCCNC(=N)N)C(=O)N[C@@H](Cc1c[nH]cn1)C(=O)N[C@@H](Cc1ccc(O)cc1)C(=O)N[C@@H](Cc1ccc(O)cc1)C(=O)N[C@@H](CC(N)=O)C(=O)N[C@@H](Cc1c[nH]c2ccccc12)C(=O)N[C@@H](CC(C)C)C(=O)N[C@H](C(=O)N[C@@H](CCCNC(=N)N)C(=O)N[C@@H](CCC(N)=O)C(=O)N[C@@H](CCCNC(=N)N)C(=O)N[C@@H](Cc1ccc(O)cc1)C(N)=O)[C@@H](C)O)C(C)C [Compound 125, N{alpha-4}-(3-methylbutanoyl)-N{epsilon-7}-(6-[(4S)-4-carboxy-4-(17-carboxyheptadecanamido)butanamido]hexanoyl)-[4A,7K,9E,18Q,22V,23E,28Y,30W,31L]-hPYY(4-36)]
Sol6 (Solubility determination): 9.7 mg/mL
Sol7 (Solubility determination): 10.0 mg/mL
Ki [1]: 3.37 nM
